Data: patent publication US9820988B2, “Treatment of epileptic disorders in feline animals” (Boehringer Ingelheim Vetmedica GmbH, priority 2014, dated 2017)
Where two headings read alike, the source gives them in different places.

Legend:
[1] = test system: treated cats; conditions: cited from earlier work
[2] = test system: feline amygdala or hippocampal kindled seizures; conditions: partial onset and secondarily generalized limbic seizures; cited from earlier work
[3] = test system: cats with drug resistant epilepsy; assay: Efficacy 4: cats with drug-resistant (phenobarbital) epileptic disorders switched to imepitoin; assay type: in vivo, cat
Procedure: Cats with epileptic disorders are treated with increasing doses of phenobarbital, starting from 3 mg/kg bodyweight twice daily up to the maximum tolerated dose. […] According to this treatment failure this represents drug-resistant epileptic disorders. The treatment of these cats with drug resistant epilepsy is now changed to imepitoin, provided at high doses as for example 30 mg/kg bodyweight twice daily.

[4] = test system: clinically healthy male and female cats; assay: Safety 2: repeated oral administration of 40 and 80 mg/kg twice daily for 30 days, placebo controlled; assay type: in vivo, cat
Procedure: FIG. 3 Measurement of Alkaline Phosphatase (AP) in serum following administration of imepitoin in doses of 40 or 80 mg/kg bodyweight twice daily, or placebo. AP is routinely used to judge liver function and diagnose liver pathologies, and an elevated AP is indicative for a variety of diseases. […] Day 0 reflects measurement before treatment start.
Eighteen 9 months old, male and female domestic short hair cats with a body weight range of 2.3-4.9 kg are assigned to this study. The animals are allocated to three test groups employing a pseudo-random body weight stratification procedure that yielded groups with approximately equal mean body weight, with three male and three female animals per group. The test article (imepitoin) is orally administered to the animals at a target dose of 40 mg imepitoin/kg bodyweight and 80 mg imepitoin/kg bodyweight twice daily at an interval of 8-12 h on days 0-30. The third group receives visually identical placebo tablets, to avoid identification of the Placebo Group.
Physical examination a day before treatment start and on study days 7, 14 and 30 includes body temperature (rectal), ocular system, musculoskeletal system, cardiovascular system, reproductive system, lymphatic system, behavior, nervous system, integumentary system, respiratory system, urinary system and gastro-intestinal system. In addition, blood and urine samples are analyzed before treatment and after 30 days.

[5] = Pharmacokinetics of imepitoin in cats after oral administration (Example 1); assay type: in vivo, cat; conditions: for Tmax / Cmax / AUC(0-t): po; for Tmax: 30 mg/kg; for Cmax / AUC(0-t): Day 0, first dose of 30 mg/kg; for AUC(0-t): read-out: AUC0-6h
Procedure: FIG. 1 Mean plasma concentration-time curves of imepitoin after the first oral dose of 30 mg/kg imepitoin in male (M) and female cats (F) at Day 0, Day 14 and Day 29 (semi-logarithmic scale).
When administered orally at a preferred dose of e.g. 30 mg/kg bodyweight twice daily (60 mg/kg bodyweight daily dose) imepitoin the highest plasma concentration […] is reached in median 1 hour (range 0.5 to 3 hours) after administration, in most cases 1 hour.
Corresponding AUC0-6h-values are 28001 ng·h/mL and 24467 ng·h/mL, respectively.

[6] = test system: feline patients with epilepsy; assay: Efficacy 2: seizure frequency and severity in feline patients versus untreated status at diagnosis; assay type: in vivo, cat
Text: In some animals, treatment with current standard of care, phenobarbital, is not effective and results in frequent severe seizures despite high-dose treatment.

[7] = test system: cats with epileptic disorders; assay: Efficacy 3: imepitoin versus phenobarbital in two groups of cats with epileptic disorders
[8] = test system: clinically healthy male and female cats; assay: Safety 1: tolerance in clinically healthy cats after repeated oral administration for 30 days; assay type: in vivo, cat
Text: In a randomized, controlled, blinded study the tolerance of imepitoin is investigated in clinically healthy male and female cats after repeated oral administration for 30 days.
Twelve 1-3 years old, male and female domestic short hair cats with a body weight range of 2.8-4.4 kg are assigned to this study. The animals are randomly allocated to two groups, three male and three female animals per group. The test article (imepitoin) is orally administered to the animals of group II at a target dose of 30 mg imepitoin/kg bodyweight twice daily at an interval of 8-12 h on days 0-29. Group I is left untreated serving as controls.

[9] = test system: cats with epilepsy; assay: Efficacy 1: two cats diagnosed with epilepsy, severe generalized seizures; assay type: in vivo, cat
Procedure: Two cats are diagnosed with epilepsy, having severe generalized seizures.
The first cat, a 14 year old European Short-Hair cat, had two severe generalized seizures. Both lasted around two minutes, the cat lost consciousness and was disoriented after the seizure. In addition, a fibrosarcoma and hyperthyroidism was diagnosed. The cat was treated twice a day with 100 mg imepitoin, being a dose of 25 mg/kg bodyweight. […] This resolved spontaneously after 10 days of treatment.
The second cat, 7 years old, experienced two generalized seizures on two consecutive days, and the diagnosis was epilepsy of unknown cause. The cat appeared to be sleepier in the time before occurrence of first seizure.

[10] = test system: healthy cats; conditions: 20 mg/kg dose; cited from earlier work
[11] = 40 and 80 mg/kg body weight twice daily for 30 days
[12] = 40 and 80 mg/kg body weight twice daily, after 30 days
[13] = female, domestic short hair, plasma, females (n=3)
[14] = male, domestic short hair, plasma, males (n=3)
[15] = imepitoin 30 mg/kg twice daily, phenobarbital 3.5 mg/kg twice daily
[16] = 30 mg/kg bodyweight twice daily, days 0-29
[17] = second cat, 10 mg/kg bodyweight twice daily
[18] = second cat, 20 mg/kg bodyweight twice daily

## [Br-].[K+] [Bromide]
[1]; cats
  treated cats with idiosyncratic allergic pneumonitis: 35-42%
  treated cats with seizures controlled: about 35%

## CC[C@@H](C(N)=O)N1CCCC1=O [Levetiracetam]
[1]; cats with refractory epilepsy under phenobarbital treatment, 10 cats
  efficacy as add-on therapy: somewhat effective

## Cl.O=C(O)C1CCCN(CCC=C(c2ccccc2)c2ccccc2)C1 (stereo not shown) [SKF89976A]
[2]
  anticonvulsant effect on kindled seizures: potent anticonvulsant effects

## NCC(CC(=O)O)c1ccc(Cl)cc1 (stereo not shown) [baclofen]
[2]
  anticonvulsant effect on kindled seizures: did not show anticonvulsant effects

## C=CC(N)CCC(=O)O (stereo not shown) [gamma-vinyl GABA]
[2]
  anticonvulsant effect on kindled seizures: potent anticonvulsant effects

## O=C1N=C(N2CCOCC2)CN1c1ccc(Cl)cc1 [imepitoin, 1-(4-chlorophenyl)-4-(4-morpholinyl)-2,5-dihydro-1H-imidazol-2-one]
[3]; after change to imepitoin 30 mg/kg bodyweight twice daily, in most cases
  reduction of seizure frequency: at least 50%
[3]; cats with uncontrolled or continuing seizures under phenobarbital
  seizure status after transition from phenobarbital to imepitoin monotherapy: became seizure free
[4]; [11]
  behavioral changes or sedation: not noted
  considerable adverse events: no considerable adverse events are observed
  emesis: intermittently observed in the second and third week of treatment
  tolerability: well tolerated by all cats
[4]; [12]
  hematological or biochemical abnormalities in blood examination: No hematological or biochemical abnormalities are noted
  urine analysis: physiological results
[4]; 40 or 80 mg/kg bodyweight twice daily, FIG. 3
  Alkaline Phosphatase (AP) in serum: in the physiological range with normal variance
[5]; 30 mg/kg twice daily, Days 0-29
  accumulation upon long-term BID dosing: no accumulation occurs
[5]; after 14 and 29 days of twice daily dosing
  exposure compared to the first dosing day: slightly lower exposure
[5]; both sexes, domestic short hair, plasma, oral, 30 mg/kg bodyweight twice daily, read-out: tMax, median
  Tmax: 1 h
[5]; both sexes, domestic short hair, plasma, oral, 30 mg/kg bodyweight twice daily, read-out: tMax, range
  Tmax: 0.5 to 3 h
[5]; both sexes, domestic short hair, plasma, oral, 30 mg/kg bodyweight twice daily, read-out: half-life time t1/2 (converted)
  half-life: 1.5 h
[5]; [13]
  Cmax: 6640 ng/mL
  AUC(0-t): 24500 ng·h/mL
[5]; [14]
  Cmax: 7050 ng/mL
  AUC(0-t): 28000 ng·h/mL
[5]; oral 30 mg/kg
  time of last measurable concentration: more than 18 hours
[6]; 30 mg/kg bodyweight twice daily
  seizure frequency and severity compared to untreated status at diagnosis: significantly reduced
[6]; 30 mg/kg bodyweight twice daily at an interval of 8-14 hours
  cats achieving seizure freedom: at least 40%
[6]; 30 mg/kg bodyweight twice daily, seizure-free cats
  considerable adverse events: do also not experience considerable adverse events
[6]; 20 to 60 mg/kg bodyweight two- or three-times daily
  seizure frequency and/or severity in animals in which phenobarbital is not effective: reduces seizure frequency and/or severity significantly
[7]; imepitoin 30 mg/kg bodyweight twice daily
  seizure freedom among well controlled cats: the majority of them reach seizure freedom
[7]; [15]
  cats poorly controlled / disease not adequately controlled: about 15%
  cats with well controlled epilepsy/seizures: 85%
[8]; 30 mg/kg bodyweight twice daily, FIGS. 2A+2B
  liver enzyme measurements versus untreated control: no difference between imepitoin-treated and untreated (control) animals
[8]; [16]
  Mortality: not observed
  effect on body weight development, food and water consumption, heart rate, respiratory rate and laboratory parameters (hematology, clinical chemistry, urinalysis): No evidence of a clear effect
  sedation: No sedation is observed in any animal
[8]; 30 mg/kg twice daily, from the second week of treatment onwards
  animals with temporary vomitus or choking: 3 of 6
[9]; first cat, 25 mg/kg bodyweight twice a day
  considerable adverse events: No considerable adverse events were observed
[9]; first cat, 25 mg/kg bodyweight twice a day, initially
  tiredness: tiredness 1-1.5 hours after application of the drug, which lasted for about two hours
[9]; first cat, 25 mg/kg then 20 mg/kg bodyweight twice a day
  duration of complete seizure freedom (observation period): 6 months
[9]; first cat, 14 years, 100 mg (25 mg/kg bodyweight) twice a day
  seizures under treatment: no further seizures
[9]; first cat, dose reduced to 20 mg/kg bodyweight after three months
  tiredness after dose reduction: the tiredness disappeared
[9]; [17]
  seizures under treatment: experienced again a seizure
  tiredness: resolved the tiredness
[9]; [18]
  duration of complete seizure freedom (observation period): 2.5 months
  tiredness or other adverse events: No tiredness or other adverse events were observed
[9]; second cat, 30 mg/kg bodyweight twice a day
  tiredness: showed the tiredness observed in the first cat already after treatment start
[9]; second cat, 7 years, 30 mg/kg bodyweight twice a day
  response to treatment: responded immediately to treatment

## CCC1(c2ccccc2)C(=O)NC(=O)NC1=O [phenobarbital]
[1]; cats, recent study (Pakozdy et al. 2013)
  treated cases with sedation: over 40%
[7]; [15]
  cats poorly controlled / disease not adequately controlled: 30%
  cats with well controlled epilepsy/seizures: 70%
  treated cats experiencing at least one adverse event: 65%
[7]; phenobarbital 3.5 mg/kg bodyweight twice daily
  treated cats experiencing sedation as side effect: approximately 40%

## NC(=O)CCC/N=C(\c1ccc(Cl)cc1)c1cc(F)ccc1O [progabide]
[2]
  anticonvulsant effect on kindled seizures: potent anticonvulsant effects

## NS(=O)(=O)Cc1noc2ccccc12 [zonisamide]
[10]
  share of healthy cats with adverse reactions (anorexia, diarrhea, vomiting, somnolence, ataxia): Approximately half
